Test system: 857933-349-R-J2-PDC complex spheroids, viability
Assay: Anticancer human tumor 857933-349-R-J2-PDC patient-derived colon adenocarcinoma cell line growth inhibition [GQUAD]
Settings: for IC50: curve of first compound; for viability, T/C: stronger effect = lower value; active means viability on the fitted dose curve at most 10% of control; inactive means the rest
Summary of the method: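 Multi-cell-type spheroids of tumor cells with HUVEC and mesenchymal stem cells, treated with drug combinations. Concentrations descend in half-log steps from near clinical Cmax, or from 10 microM where Cmax is unknown; viability read-out.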

[1] = second compound 0.0316 µM, first compound 0.0316 µM
[2] = second compound 0.0316 µM, first compound 0.1 µM
[3] = second compound 0.0316 µM, first compound 0.316 µM
[4] = second compound 0.0316 µM, first compound 1 µM
[5] = second compound 0.0316 µM, first compound 3.16 µM
[6] = second compound 0.0316 µM, first compound 10 µM
[7] = second compound 0.1 µM, first compound 0.0316 µM
[8] = second compound 0.1 µM, first compound 0.1 µM
[9] = second compound 0.1 µM, first compound 0.316 µM
[10] = second compound 0.1 µM, first compound 1 µM
[11] = second compound 0.1 µM, first compound 3.16 µM
[12] = second compound 0.1 µM, first compound 10 µM
[13] = second compound 0.316 µM, first compound 0.0316 µM
[14] = second compound 0.316 µM, first compound 0.1 µM
[15] = second compound 0.316 µM, first compound 0.316 µM
[16] = second compound 0.316 µM, first compound 1 µM
[17] = second compound 0.316 µM, first compound 3.16 µM
[18] = second compound 0.316 µM, first compound 10 µM
[19] = second compound 1 µM, first compound 0.0316 µM
[20] = second compound 1 µM, first compound 0.1 µM
[21] = second compound 1 µM, first compound 0.316 µM
[22] = second compound 1 µM, first compound 1 µM
[23] = second compound 1 µM, first compound 3.16 µM
[24] = second compound 1 µM, first compound 10 µM
[25] = second compound 3.16 µM, first compound 0.0316 µM
[26] = second compound 3.16 µM, first compound 0.1 µM
[27] = second compound 3.16 µM, first compound 0.316 µM
[28] = second compound 3.16 µM, first compound 1 µM
[29] = second compound 3.16 µM, first compound 3.16 µM
[30] = second compound 3.16 µM, first compound 10 µM
[31] = second compound 10 µM, first compound 0.0316 µM
[32] = second compound 10 µM, first compound 0.1 µM
[33] = second compound 10 µM, first compound 0.316 µM
[34] = second compound 10 µM, first compound 1 µM
[35] = second compound 10 µM, first compound 3.16 µM
[36] = second compound 10 µM, first compound 10 µM
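Further: spheroids exposed to compounds for one week before readout.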
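Wherever viability, T/C is given: percent viability relative to vehicle DMSO wells taken as 100%.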

O=c1[nH]cc(F)c(=O)[nH]1 + Cc1[nH]c2ccc(F)cc2c1-c1nc2c3cccnc3c3ncccc3c2[nH]1
2.2 µM: IC50 (second compound 10 µM)
1.8 µM: IC50 (second compound 0.1 µM)
2.15 µM: IC50 (second compound 1 µM)
inactive: viability, T/C [1] 97.1% | viability, T/C [2] 111% | viability, T/C [3] 99% | viability, T/C [4] 65.7% | viability, T/C [5] 33.3% | viability, T/C [6] 22.6% | viability, T/C [7] 104% | viability, T/C [8] 103% | viability, T/C [9] 96.8% | viability, T/C [10] 64.8% | viability, T/C [11] 36% | viability, T/C [12] 22.5% | viability, T/C [13] 100% | viability, T/C [14] 99.3% | viability, T/C [15] 94% | viability, T/C [16] 74.9% | viability, T/C [17] 36.1% | viability, T/C [18] 22.6% | viability, T/C [19] 101% | viability, T/C [20] 98.2% | viability, T/C [21] 96.7% | viability, T/C [22] 75.7% | viability, T/C [23] 37% | viability, T/C [24] 23% | viability, T/C [25] 96.3% | viability, T/C [26] 94.7% | viability, T/C [27] 96.7% | viability, T/C [28] 73.8% | viability, T/C [29] 36.1% | viability, T/C [30] 22.6% | viability, T/C [31] 93.2% | viability, T/C [32] 96.8% | viability, T/C [33] 95.2% | viability, T/C [34] 82% | viability, T/C [35] 35.3% | viability, T/C [36] 24.8%
1.72 µM: IC50 (second compound 0.0316 µM)
2.06 µM: IC50 (second compound 3.16 µM)
2.1 µM: IC50 (second compound 0.316 µM)

Cc1cccc(N(C)C(=O)C2C(O)CCN2c2nc(C)cc(C(F)(F)F)c2C#N)c1 (stereo not drawn) + CN(C)c1ccc(Nc2c3ccc(NC(=O)CCN4CCCC4)cc3nc3cc(NC(=O)CCN4CCCC4)ccc23)cc1
inactive: viability, T/C [1] 106% | viability, T/C [2] 106% | viability, T/C [3] 101% | viability, T/C [4] 105% | viability, T/C [5] 103% | viability, T/C [6] 99.3% | viability, T/C [7] 101% | viability, T/C [8] 107% | viability, T/C [9] 100% | viability, T/C [10] 102% | viability, T/C [11] 103% | viability, T/C [12] 99.2% | viability, T/C [13] 104% | viability, T/C [14] 103% | viability, T/C [15] 98.5% | viability, T/C [16] 102% | viability, T/C [17] 108% | viability, T/C [18] 98% | viability, T/C [19] 104% | viability, T/C [20] 90.3% | viability, T/C [21] 94.3% | viability, T/C [22] 93.5% | viability, T/C [23] 96.7% | viability, T/C [24] 88.2% | viability, T/C [25] 89.9% | viability, T/C [26] 78.1% | viability, T/C [27] 83.8% | viability, T/C [28] 78.6% | viability, T/C [29] 87% | viability, T/C [30] 74.2% | viability, T/C [31] 68.8% | viability, T/C [32] 71.7% | viability, T/C [33] 76.5% | viability, T/C [34] 74.7% | viability, T/C [35] 69.8% | viability, T/C [36] 63.5%
> 10 µM: IC50 (second compound 0.0316 µM) | IC50 (second compound 0.1 µM) | IC50 (second compound 0.316 µM) | IC50 (second compound 1 µM) | IC50 (second compound 3.16 µM) | IC50 (second compound 10 µM)

C=CC(=O)N1CCN(c2nc(=O)n(-c3c(C)ccnc3C(C)C)c3nc(-c4c(O)cccc4F)c(F)cc23)C(C)C1 (stereo not drawn) + Cc1[nH]c2ccc(F)cc2c1-c1nc2c3cccnc3c3ncccc3c2[nH]1
> 10 µM: IC50 (second compound 0.0316 µM) | IC50 (second compound 0.1 µM) | IC50 (second compound 0.316 µM) | IC50 (second compound 1 µM) | IC50 (second compound 3.16 µM) | IC50 (second compound 10 µM)
inactive: viability, T/C [1] 102% | viability, T/C [2] 106% | viability, T/C [3] 96.7% | viability, T/C [4] 102% | viability, T/C [5] 109% | viability, T/C [6] 86% | viability, T/C [7] 98.9% | viability, T/C [8] 101% | viability, T/C [9] 96.5% | viability, T/C [10] 104% | viability, T/C [11] 103% | viability, T/C [12] 93.4% | viability, T/C [13] 95.1% | viability, T/C [14] 100% | viability, T/C [15] 101% | viability, T/C [16] 97.4% | viability, T/C [17] 104% | viability, T/C [18] 89% | viability, T/C [19] 101% | viability, T/C [20] 106% | viability, T/C [21] 96.3% | viability, T/C [22] 104% | viability, T/C [23] 108% | viability, T/C [24] 89.2% | viability, T/C [25] 99% | viability, T/C [26] 110% | viability, T/C [27] 91.3% | viability, T/C [28] 99% | viability, T/C [29] 104% | viability, T/C [30] 95.3% | viability, T/C [31] 102% | viability, T/C [32] 98.2% | viability, T/C [33] 88.2% | viability, T/C [34] 92.7% | viability, T/C [35] 99% | viability, T/C [36] 84.7%

CC(C)n1c(=O)n(C)c2cnc3cc(F)c(-c4ccc(OCCCN5CCCCC5)nc4)cc3c21 + Cc1[nH]c2ccc(F)cc2c1-c1nc2c3cccnc3c3ncccc3c2[nH]1
> 10 µM: IC50 (second compound 0.0316 µM) | IC50 (second compound 0.1 µM) | IC50 (second compound 0.316 µM) | IC50 (second compound 1 µM) | IC50 (second compound 3.16 µM) | IC50 (second compound 10 µM)
inactive: viability, T/C [1] 100% | viability, T/C [2] 102% | viability, T/C [3] 107% | viability, T/C [4] 102% | viability, T/C [5] 107% | viability, T/C [6] 84% | viability, T/C [7] 94.8% | viability, T/C [8] 115% | viability, T/C [9] 98.5% | viability, T/C [10] 95.4% | viability, T/C [11] 105% | viability, T/C [12] 79.9% | viability, T/C [13] 102% | viability, T/C [14] 101% | viability, T/C [15] 102% | viability, T/C [16] 107% | viability, T/C [17] 110% | viability, T/C [18] 83.5% | viability, T/C [19] 98.4% | viability, T/C [20] 106% | viability, T/C [21] 101% | viability, T/C [22] 107% | viability, T/C [23] 128% | viability, T/C [24] 79.3% | viability, T/C [25] 105% | viability, T/C [26] 103% | viability, T/C [27] 115% | viability, T/C [28] 98.6% | viability, T/C [29] 111% | viability, T/C [30] 83.8% | viability, T/C [31] 102% | viability, T/C [32] 103% | viability, T/C [33] 108% | viability, T/C [34] 103% | viability, T/C [35] 103% | viability, T/C [36] 88.9%
